Assay results from the supplement of paper PMC11208160.

assay: recombinant UMI read abundance after kanamycin selection (control-corrected) (log10(CPM+1)); higher = more efficient recombination; extreme values may be limits of the assay; sequences stand for … in AGTGCAGAGAAAATCGGCCAGTTTTCTCTGCCTGCAGTCCGCATGCCGTGGGACCCCTTGGGTTCTAACCTGTTGCCTAGATTTATGCAGCGGACTGCCTTTCTCCCAAAGTGATAAACCGG…AGGTTGGTTTCACT; site = the 11-nt donor
In short: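 Reported values are log10(CPM+1) from a pooled Escherichia coli screen of donor and donor-binding-loop pairs for the IS621 bridge recombinase. Selection used IPTG (0.07 mM) plus kanamycin, against unselected plating, each in two replicates. Recombinant UMIs were amplified across the donor–target junction, sequenced, converted to CPM, averaged over replicates and scaled by control-derived factors.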
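Further: IS621 bridge recombinase in Escherichia coli cells against a fixed T5 target plasmid.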

Sequence | recombinant UMI read abundance (log10)
TAGTCAGCATGGACCGGTTTTCCCGGTAATCCGTATTTGCT (site TAGTCAGCTAG) | 0.957
TAGTCTGCATGGACCGGTTTTCCCGGTAATCCGTATTTGAG (site TAGTCTGCTCT) | 0.338
TAGTGAGCATGGACCGGTTTTCCCGGTAATCCGTATTTGGG (site TAATGAGCTCC) | 0.00708
TAGTGAGCATGGACCGGTTTTCCCGGTAATCCGTATTTGGG (site TACTGAGCTCC) | 0
TAGTGAGCATGGACCGGTTTTCCCGGTAATCCGTATTTGGG (site TAGTGAGCTCC) | 0.0293
TAGTGAGCATGGACCGGTTTTCCCGGTAATCCGTATTTGGG (site TATTGAGCTCC) | 0
TAGTGGACATGGACCGGTTTTCCCGGTAATCCGTATTTGTT (site TAGTGGACTAA) | 1.38
TAGTGTACATGGACCGGTTTTCCCGGTAATCCGTATTTGAT (site TAGTGTACTAT) | 0.856
TATAAAGCATGGACCGGTTTTCCCGGTAATCCGTATTTGGA (site TATAAAGCTTC) | 0.646
TATAATACATGGACCGGTTTTCCCGGTAATCCGTATTTGCA (site TAAAATACTTG) | 1.04
TATAATACATGGACCGGTTTTCCCGGTAATCCGTATTTGCA (site TACAATACTTG) | 0.35
TATAATACATGGACCGGTTTTCCCGGTAATCCGTATTTGCA (site TAGAATACTTG) | 2.6
TATAATACATGGACCGGTTTTCCCGGTAATCCGTATTTGCA (site TATAATACTTG) | 0.242
TATACTGCATGGACCGGTTTTCCCGGTAATCCGTATTTGCT (site TATACTGCTAG) | 1.63
TATAGCGCATGGACCGGTTTTCCCGGTAATCCGTATTTGTC (site TATAGCGCTGA) | 2.62
TATAGTCCATGGACCGGTTTTCCCGGTAATCCGTATTTGTA (site TAAAGTCCTTA) | 0.605
TATAGTCCATGGACCGGTTTTCCCGGTAATCCGTATTTGTA (site TACAGTCCTTA) | 0.121
TATAGTCCATGGACCGGTTTTCCCGGTAATCCGTATTTGTA (site TAGAGTCCTTA) | 0.0216
TATAGTCCATGGACCGGTTTTCCCGGTAATCCGTATTTGTA (site TATAGTCCTTA) | 0.432
TATCAAACATGGACCGGTTTTCCCGGTAATCCGTATTTGGC (site TATCAAACTGC) | 0
TATCACACATGGACCGGTTTTCCCGGTAATCCGTATTTGTC (site TATCACACTGA) | 1.5
TATCAGCCATGGACCGGTTTTCCCGGTAATCCGTATTTGTT (site TATCAGCCTAA) | 0.0212
TATCCATCATGGACCGGTTTTCCCGGTAATCCGTATTTGCG (site TATCCATCTCG) | 0.52
TATCGAGCATGGACCGGTTTTCCCGGTAATCCGTATTTGTC (site TATCGAGCTGA) | 2.55
TATCGTCCATGGACCGGTTTTCCCGGTAATCCGTATTTGCG (site TATCGTCCTCG) | 0.0127

Sequence | recombinant UMI read abundance (log10)
TATCTCACATGGACCGGTTTTCCCGGTAATCCGTATTTGTC (site TATCTCACTGA) | 1.44
TATCTTCCATGGACCGGTTTTCCCGGTAATCCGTATTTGGT (site TATCTTCCTAC) | 0.00632
TATGCGACATGGACCGGTTTTCCCGGTAATCCGTATTTGCT (site TATGCGACTAG) | 1.27
TATGCTGCATGGACCGGTTTTCCCGGTAATCCGTATTTGGA (site TATGCTGCTTC) | 0.0199
TATGGACCATGGACCGGTTTTCCCGGTAATCCGTATTTGCA (site TATGGACCTTG) | 0
TATGGGTCATGGACCGGTTTTCCCGGTAATCCGTATTTGCT (site TATGGGTCTAG) | 2.88
TATGTAACATGGACCGGTTTTCCCGGTAATCCGTATTTGCT (site AATGTAACTAG) | 0.864
TATGTAACATGGACCGGTTTTCCCGGTAATCCGTATTTGCT (site CATGTAACTAG) | 1.18
TATGTAACATGGACCGGTTTTCCCGGTAATCCGTATTTGCT (site GATGTAACTAG) | 1.67
TATGTAACATGGACCGGTTTTCCCGGTAATCCGTATTTGCT (site TATGTAACTAG) | 2.06
TATGTATCATGGACCGGTTTTCCCGGTAATCCGTATTTGCC (site TATGTATCTGG) | 2.66
TATGTGGCATGGACCGGTTTTCCCGGTAATCCGTATTTGAA (site TATGTGGCTTT) | 0.784
TATGTGGCATGGACCGGTTTTCCCGGTAATCCGTATTTGTG (site TATATGGCTCA) | 0.00536
TATGTGGCATGGACCGGTTTTCCCGGTAATCCGTATTTGTG (site TATCTGGCTCA) | 0.0111
TATGTGGCATGGACCGGTTTTCCCGGTAATCCGTATTTGTG (site TATGTGGCTCA) | 0.00847
TATGTGGCATGGACCGGTTTTCCCGGTAATCCGTATTTGTG (site TATTTGGCTCA) | 0.0197
TATTAACCATGGACCGGTTTTCCCGGTAATCCGTATTTGCC (site TATTAACCTGG) | 0
TATTCAACATGGACCGGTTTTCCCGGTAATCCGTATTTGCC (site TATTCAACTGG) | 0.527
TATTCGGCATGGACCGGTTTTCCCGGTAATCCGTATTTGGT (site TATTCGGCTAC) | 0
TATTCTGCATGGACCGGTTTTCCCGGTAATCCGTATTTGGA (site TATTCTGCTTC) | 0.603
TATTTAGCATGGACCGGTTTTCCCGGTAATCCGTATTTGTG (site TATTTAGCTCA) | 0.31
TATTTAGCATGGACCGGTTTTCCCGGTAATCCGTATTTGTG (site TATTTCGCTCA) | 0.026
TATTTAGCATGGACCGGTTTTCCCGGTAATCCGTATTTGTG (site TATTTGGCTCA) | 0.0112
TATTTAGCATGGACCGGTTTTCCCGGTAATCCGTATTTGTG (site TATTTTGCTCA) | 0.0238
TATTTGGCATGGACCGGTTTTCCCGGTAATCCGTATTTGGG (site TATTTGGCTCA) | 0

Sequence | recombinant UMI read abundance (log10)
TATTTGGCATGGACCGGTTTTCCCGGTAATCCGTATTTGGG (site TATTTGGCTCC) | 0.0427
TATTTGGCATGGACCGGTTTTCCCGGTAATCCGTATTTGGG (site TATTTGGCTCG) | 0.0185
TATTTGGCATGGACCGGTTTTCCCGGTAATCCGTATTTGGG (site TATTTGGCTCT) | 0.0188
TCAAATTCATGGACCGGTTTTCCCGGTAATCCGTATTTGCC (site TCAAATTCTGG) | 0.558
TCAAATTCATGGACCGGTTTTCCCGGTAATCCGTATTTGCC (site TCCAATTCTGG) | 0
TCAAATTCATGGACCGGTTTTCCCGGTAATCCGTATTTGCC (site TCGAATTCTGG) | 0
TCAAATTCATGGACCGGTTTTCCCGGTAATCCGTATTTGCC (site TCTAATTCTGG) | 0
TCAACCCCATGGACCGGTTTTCCCGGTAATCCGTATTTGGT (site TCAACCCCTAC) | 0
TCAACGTCATGGACCGGTTTTCCCGGTAATCCGTATTTGCA (site TCAACGTCTTG) | 0
TCAAGAACATGGACCGGTTTTCCCGGTAATCCGTATTTGGG (site TCAAGAACTCC) | 0.301
TCACACACATGGACCGGTTTTCCCGGTAATCCGTATTTGAT (site TCACACACTAT) | 1.33
TCACACACATGGACCGGTTTTCCCGGTAATCCGTATTTGTG (site TCACACACTCA) | 0.198
TCACACTCATGGACCGGTTTTCCCGGTAATCCGTATTTGCA (site TCAAACTCTTG) | 0
TCACACTCATGGACCGGTTTTCCCGGTAATCCGTATTTGCA (site TCACACTCTTG) | 2.68
TCACACTCATGGACCGGTTTTCCCGGTAATCCGTATTTGCA (site TCAGACTCTTG) | 0
TCACACTCATGGACCGGTTTTCCCGGTAATCCGTATTTGCA (site TCATACTCTTG) | 1.85
TCACGACCATGGACCGGTTTTCCCGGTAATCCGTATTTGTG (site TCACGACCTCA) | 0.0189
TCACGGCCATGGACCGGTTTTCCCGGTAATCCGTATTTGGT (site TCACGGCCTAC) | 0.00583
TCACTAACATGGACCGGTTTTCCCGGTAATCCGTATTTGGA (site TCACTAACTTC) | 0.957
TCACTATCATGGACCGGTTTTCCCGGTAATCCGTATTTGCA (site ACAGTATCTTG) | 0
TCACTATCATGGACCGGTTTTCCCGGTAATCCGTATTTGCA (site TCACTATCTTG) | 2.41
TCACTCGCATGGACCGGTTTTCCCGGTAATCCGTATTTGAA (site TCACTCGCTTT) | 1.86
TCAGACCCATGGACCGGTTTTCCCGGTAATCCGTATTTGGA (site TCAGACCCTTC) | 0.201
TCAGAGACATGGACCGGTTTTCCCGGTAATCCGTATTTGAG (site TCAGAGACTCA) | 0.02
TCAGAGACATGGACCGGTTTTCCCGGTAATCCGTATTTGAG (site TCAGAGACTCC) | 0.288
